According to patent publication US10576102B2, “KOC1-derived peptide and vaccine including same” (ONCOTHERAPY SCIENCE, INC., priority 2014, dated 2020):

Tests used:
Format in all cases: cell-based, human
peptide-pulsed C1R-A11 [1] = test: IFN-gamma ELISA of CTL lines and CTL clones (HLA-A*1101); conditions: CTL lines; target cells pulsed with the peptide vs not pulsed; C1R-A11
Description: (§1) CTLs were propagated in culture using methods similar to those disclosed by Riddell et al. (Walter E A et al., N Engl J Med 1995, 333(16): 1038-44; Riddell S R et al., Nat Med 1996, 2(2): 216-23). The CTLs were co-cultured in a total of 25 ml AIM-V medium containing 5% AS (AIM-V/5% AS) and 40 ng/ml anti-CD3 antibody with two types of Mitomycin C-treated human B lymphoblastoid cell lines at 5×10^6 cells/flask. One day after beginning of the culturing, 120 IU/ml IL-2 was added to the culture. On days 5, 8 and 11, a fresh AIM-V/5% AS medium containing 30 IU/ml IL-2 was added to the culture (Tanaka H et al., Br J Cancer 2001, 84(1): 94-9; Umano Y et al., Br J Cancer 2001, 84(8): 1052-7; Uchida N et al., Clin Cancer Res 2004, 10(24): 8577-86; Suda T et al., Cancer Sci 2006, 97(5): 411-9; Watanabe T et al., Cancer Sci 2005, 96(8): 498-506).
(§2) Dilution of CTLs was carried out to make 0.3, 1 and 3 cells/well in 96 round-bottomed microtiter plates (Nalge Nunc International). The CTLs were co-cultured with two types of Mitomycin C-treated human B lymphoblastoid cell lines at 1×10^4 cells/well in a total of 150 micro-1/well AIM-V/5% AS medium with 30 ng/ml anti-CD3 antibody and 125 IU/ml IL-2. Ten days later, IL-2 was added to the medium at 50 micro-1/well to reach a final concentration of 125 IU/ml. On day 14, the CTL activity was tested, and the CTL clones were propagated using the same method as described above (Uchida N et al., Clin Cancer Res 2004, 10(24): 8577-86; Suda T et al., Cancer Sci 2006, 97(5): 411-9; Watanabe T et al., Cancer Sci 2005, 96(8): 498-506).
Specifically, peptide-pulsed C1R-A11 (1×10^4 cells/well) was prepared as the stimulator cell. The induced CTLs, i.e., CTL lines and CTL clones, were used as the responder cell. The IFN-gamma ELISPOT assay and IFN-gamma ELISA were performed according to the manufacturer's manual.

peptide-pulsed C1R-A11 [2] = test: In vitro CTL induction, IFN-gamma ELISPOT assay (HLA-A*1101); conditions: CTLs induced with peptide-pulsed DCs from HLA-A*1101-positive volunteers; day 21; vs peptide-pulsed C1R-A11, compared with unpulsed control
How it was run: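 CD8+ T cells from HLA-A*1101-positive donors were stimulated three times (days 0, 7, 14) with irradiated autologous monocyte-derived DCs pulsed with 20 μg/ml peptide, in the presence of IL-7 and IL-2. On day 21, […] were tested by IFN-gamma ELISPOT against peptide-pulsed C1R-A11 stimulators at 1×10^4 cells/well.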

peptide-pulsed C1R-A33 = test: IFN-gamma ELISA of CTL lines and CTL clones (HLA-A*3303)
Description: as §1, §2
Specifically, peptide-pulsed C1R-A33 (1×10^4 cells/well) was prepared as the stimulator cell. The induced CTLs, i.e., CTL lines and CTL clones, were used as the responder cell. The IFN-gamma ELISPOT assay and IFN-gamma ELISA were performed according to the manufacturer's manual.

| Sequence | IFN-gamma production of CTL lines, ELISA (peptide-pulsed C1R-A11 [1]) | peptide-specific CTL activity (IFN-gamma production), ELISPOT (peptide-pulsed C1R-A11 [2]) | IFN-gamma production of CTL clones, ELISA (peptide-pulsed C1R-A33; CTL clones by limiting dilution, peptide-pulsed C1R-A33, listed as KOC1-A33-10-281) | IFN-gamma production of CTL lines, ELISA (peptide-pulsed C1R-A33; CTL lines, target cells pulsed with the peptide vs not pulsed, C1R-A33) |
| --- | --- | --- | --- | --- |
| TQFVGAIIGK (a peptide derived from KOC1) [SEQ ID NO: 30] | potent IFN-gamma production | potent IFN-gamma production | – | – |
| ILAHNNFVGR (a peptide derived from KOC1) [SEQ ID NO: 52] | – | – | Potent IFN-gamma production | potent IFN-gamma production |
